Measured values published in patent US20120264685A1 (priority 2009, published 2012).
Where a SMILES comes first, the peptide text is derived from it. [ ]: non-standard residue; d: D form. ξ: configuration not given here. ξαMeBip(2'-Et,4'-OMe) = CCc1cc(OC)ccc1-c1ccc(CC(C)(N)C(=O)O)cc1; ξαMePhe(2,6-F2) = CC(N)(Cc1c(F)cccc1F)C(=O)O; ξhhPhe = NC(CCCc1ccccc1)C(=O)O; ξαMeP = CC1(C(=O)O)CCCN1; ξαMeS = CC(N)(CO)C(=O)O; Aib = CC(C)(N)C(=O)O

What was measured:
male C57BL/6J mice = test: Acute single dose 120-min time-course experiment, in vivo glucose reduction; parameters: unit not given here; settings: n = 8, Mean ± SEM
Description: Acute single dose 120-min time-course experiments were carried out in male C57BL/6J or db/db mice, age 8-12 weeks, bred in-house. The animals were housed in groups of 6 animals per cage, for a week, in order to habituate them to vivarium conditions (25+4° C., 60-65% relative humidity, 12:12 h light: dark cycle, with lights on at 7.30 am). All the animal experiments were carried out according to the internationally valid guidelines following approval by the ‘Zydus Research Center animal ethical committee’.
[…] On the day of experiment, food was withdrawn from all the cages, water was given ad-libitum and were kept for overnight fasting. Vehicle (normal saline)/test/standard compounds were administered intraperitoneally (i.p.) or orally, on a body weight basis. Soon after the 0 min. blood collection from each animal, the subsequent blood collections were done at 30, 60 and 120 or upto 240 min., via retro-orbital route, under light ether anesthesia (Chen, D., et al., Diabetes Obesity Metabolism, 2005, 7, 307. Kim, J. G. et al., Diabetes, 2003, 52, 751).
The blood samples were centrifuged and the separated serum was immediately subjected for the glucose estimation. The serum for insulin estimation was stored at −70° C. until used for the insulin estimation. The glucose estimation was carried out with DPEC-GOD/POD method (Ranbaxy Fine Chemicals Limited, Diagnostic division, India), using Spectramax-190, in 96-microwell plate reader (Molecular devices Corporation, Sunnyvale, Calif.). […] The AUC and BCAUC obtained from graphs were analyzed for one way ANOVA, followed by Dunnett's post test, using Graph Pad prism software. Furthermore, the insulin estimation was carried out using rat/mouse insulin ELISA kit (Linco research, Missouri USA).

[1] = Stability in human plasma; assay type: in vitro ADME; settings: 2 μM, 37° C.; for half-life: human, plasma, read-out: half-life (t1/2) in human plasma
Description: (§1) Different peptidomimetics (final concentration 2 μM) were incubated with either DPP IV (1:25 mU) or pooled human plasma (7.5 μL) or simulated gastric fluid (pH 1.5; composition HCl, NaCl and Pepsin) or simulated intestinal fluid (pH 7.5) or human liver microsomes, for 0, 2, 4, 6, 12 and 24 h (37° C.; 50 mM triethanolamine-HCl buffer; pH 7.8). […] Reactions were terminated by the addition of TFA/H2O ([…], 10% (v/v)). The reaction products were then applied to a Vydac C18 analytical column (4.6×250-mm) and the major degradation fragment separated from intact peptidomimetic. The column was equilibrated with TFA/H20, at a flow rate of 1 mL/min. Using 0.1% (v/v) TFA in 70% acetonitrile/H2O, the concentration of acetonitrile in the eluting solvent was raised from 0% to 28% over 10 min and from 28% to 42% over 30 min. The absorbance was monitored at 206 nm using UV detector and peaks were collected manually prior to ESI-MS analysis. Area under the curve was measured for test peptidomimetics and their metabolites and percentage degradation were calculated at each time point over a period of 24 h.

[2] = tested on: RIN5F (Rat Insulinoma) cells; test: In vitro glucose-dependent insulin secretion (RIN5F cell assay); assay type: cell-based; settings: 16.7-mM glucose load, n = 3, mean ± S.D.
Description: RIN5F (Rat Insulinoma) cells were cultured in RPMI 1640 medium supplemented with sodium pyruvate (1 mM) HEPES and Glucose (4.5 g/L) in a humidified incubator (5% CO2), at 37° C. After trypsinization, RIN5F cells were seeded at a concentration of 0.2×10^6 cells per well, in 12 well plates. The cells were grown overnight to 80% confluence and insulin secretion experiments were performed as follows (Montrose-Rafizadeh C., et al., Mol. Cell. Endo. 1997, 130, 109.; Wang, X., et al., Endocrinology 2001, 5, 1820).
The cells were washed once with PBS solution followed by 40 min. incubation in fresh Krebs-Ringer Balanced Buffer containing NaCl (115 mmol/L), KCl (4.7 mmol/L), CaCl2 (1.28 mmol/L), MgSO4.7H2O (1.2 mmol/L), KH2PO4 (1.2 mmol/L), NaHCO3 (10 mmol/L) and HEPES (25 mmol/L), containing Glucose (1.1 mM) and B.S.A (0.5%), pH 7.4. The buffer was replaced after 40 min. and the cells were incubated (37° C.) with the test peptidomimetics, at different concentration, for 30 min., both in the presence (16.7 mM) and absence (0 mM) of glucose load. The supernatant was collected and the insulin amount was measured by ultra sensitive Rat insulin ELISA kit (Crystal Chem, IL). The protein was estimated in the supernatant using Bicinchoninic Acid kit, according to the manufacturer's protocol (Sigma Aldrich, MO). The total insulin content obtained in Pico-gram (pg) was divided with the total protein (μg) in order to normalize for differences in cell density between wells.

DPP IV enzyme = DPP IV enzyme (Homo sapiens, UniProt P27487); test: Stability against DPP IV enzyme; assay type: in vitro ADME; settings: 2 μM, 37° C.; for half-life: read-out: half-life (t1/2) with DPP-IV enzyme
Description: as §1

[3] = Stability in simulated gastric fluid; assay type: in vitro ADME; settings: 2 μM, 37° C.; for half-life (t1/2) in simulated gastric fluid: pH 1.5; for % degradation in 24 h when incubated with simulated gastric fluid: pH 1.5, 24 h
Description: (§2) Reactions were terminated by the addition of TFA/H2O ([…], 10% (v/v)). […] The column was equilibrated with TFA/H20, at a flow rate of 1 mL/min. […] The absorbance was monitored at 206 nm using UV detector and peaks were collected manually prior to ESI-MS analysis.

[4] = Stability in simulated intestinal fluid; assay type: in vitro ADME; settings: 2 μM, 37° C.; for half-life (t1/2) in simulated intestinal fluid: pH 7.5; for % degradation in 24 h when incubated with simulated intestinal fluid: pH 7.5, 24 h
Description: as §2

[5] = Stability in liver microsomes; assay type: in vitro ADME, human; settings: 2 μM, 37° C.; for half-life: human, microsomes, read-out: half-life (t1/2) in liver microsomes
Description: as §2

Sequence of DPP IV enzyme (P27487 whole entry, species assumed): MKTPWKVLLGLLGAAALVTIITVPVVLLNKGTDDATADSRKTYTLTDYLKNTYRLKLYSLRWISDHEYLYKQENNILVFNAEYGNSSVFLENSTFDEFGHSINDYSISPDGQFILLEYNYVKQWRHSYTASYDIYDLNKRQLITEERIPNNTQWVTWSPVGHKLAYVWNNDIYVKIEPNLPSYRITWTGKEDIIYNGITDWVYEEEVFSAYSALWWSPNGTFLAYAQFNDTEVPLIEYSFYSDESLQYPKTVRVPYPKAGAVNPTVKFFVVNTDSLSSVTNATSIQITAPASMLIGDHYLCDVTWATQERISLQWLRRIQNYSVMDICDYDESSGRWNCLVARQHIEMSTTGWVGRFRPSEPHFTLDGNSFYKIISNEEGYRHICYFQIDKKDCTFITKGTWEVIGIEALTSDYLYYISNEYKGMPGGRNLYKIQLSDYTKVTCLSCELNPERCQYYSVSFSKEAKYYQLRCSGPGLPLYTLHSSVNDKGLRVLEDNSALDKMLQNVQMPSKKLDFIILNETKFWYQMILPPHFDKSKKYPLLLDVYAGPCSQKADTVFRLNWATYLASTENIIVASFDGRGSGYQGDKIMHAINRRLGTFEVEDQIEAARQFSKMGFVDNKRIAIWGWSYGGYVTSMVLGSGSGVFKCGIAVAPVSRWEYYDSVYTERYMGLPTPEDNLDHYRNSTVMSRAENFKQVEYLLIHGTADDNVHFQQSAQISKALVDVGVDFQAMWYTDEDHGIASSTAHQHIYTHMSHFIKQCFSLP

% degradation in 24 h when incubated with human plasma [1] [%]	half-life [1] [h]	% degradation in 24 h when incubated with DPP-IV enzyme (DPP IV enzyme) [%]	half-life (DPP IV enzyme) [h]	half-life (t1/2) in simulated gastric fluid [3]	% degradation in 24 h when incubated with simulated gastric fluid [3] [%]	half-life (t1/2) in simulated intestinal fluid [4]	% degradation in 24 h when incubated with simulated intestinal fluid [4] [%]	% degradation in 24 h when incubated with liver microsomes [5] [%]	half-life [5] [h]	Structure (SMILES)	Insulin secretion ([2]; 0.1 nM test compd.) [pg/µg/h]	Insulin secretion ([2]; 1 nM test compd.) [pg/µg/h]	Insulin secretion ([2]; 10 nM test compd.) [pg/µg/h]	other results
										CCc1cc(OC)ccc1-c1ccc(CC(C)(NC(=O)C(C)(CC(=O)O)NC(=O)[C@H](CO)NC(=O)[C@@H](NC(=O)[C@H](Cc2ccccc2)NC(=O)[C@@H](NC(=O)CNC(=O)[C@H](CCC(=O)O)NC(=O)C(C)(C)NC(=O)[C@H](Cc2c[nH]cn2)NC(=O)[C@@H](N)C(C)C)[C@@H](C)O)[C@@H](C)O)C(=O)NC(C)(CCCc2ccccc2)C(N)=O)cc1 (single isomer, unassigned) [Seq. ID. No. 187, VH-Aib-EGTFTS-(αMe-Asp)-(αMe-Bip(OMe))-(αMe-APPA)]				blood glucose level (in vivo glucose reduction) (male C57BL/6J mice; 2 μM/kg, oral, 0 min): 183 ± 2.4; blood glucose level (in vivo glucose reduction) (male C57BL/6J mice; 2 μM/kg, oral, 30 min): 119 ± 3.1; blood glucose level (in vivo glucose reduction) (male C57BL/6J mice; 2 μM/kg, oral, 60 min): 112 ± 4.8; blood glucose level (in vivo glucose reduction) (male C57BL/6J mice; 2 μM/kg, oral, 120 min): 110 ± 2.5
										CCc1cc(OC)ccc1-c1ccc(CC(C)(NC(=O)C(C)(CC(=O)O)NC(=O)[C@H](CO)NC(=O)[C@@H](NC(=O)C(C)(Cc2c(F)cccc2F)NC(=O)[C@@H](NC(=O)CNC(=O)[C@H](CCC(N)=O)NC(=O)C(C)(C)NC(=O)[C@H](Cc2c[nH]cn2)NC(=O)[C@@H](N)C(C)C)[C@@H](C)O)[C@@H](C)O)C(=O)NC(C)(CCCc2ccccc2)C(N)=O)cc1 (single isomer, unassigned) [Seq. ID. No. 199, VH-Aib-QGT-(αMe-2,6-diFPhe)-TS-(αMe-Asp)-(αMe-Bip(OMe))-(αMe-APPA)]				blood glucose level (in vivo glucose reduction) (male C57BL/6J mice; 30 nM/kg, i.p, 0 min): 180 ± 1.2; blood glucose level (in vivo glucose reduction) (male C57BL/6J mice; 30 nM/kg, i.p, 30 min): 116 ± 3.2; blood glucose level (in vivo glucose reduction) (male C57BL/6J mice; 30 nM/kg, i.p, 60 min): 116 ± 3.1; blood glucose level (in vivo glucose reduction) (male C57BL/6J mice; 30 nM/kg, i.p, 120 min): 118 ± 1.8
										CCc1cc(OC)ccc1-c1ccc(CC(C)(NC(=O)[C@H](CC(=O)O)NC(=O)C(C)(CO)NC(=O)[C@@H](NC(=O)C(C)(Cc2c(F)cccc2F)NC(=O)[C@@H](NC(=O)CNC(=O)[C@H](CCC(=O)O)NC(=O)C2(C)CCCN2C(=O)[C@H](Cc2c[nH]cn2)NC(=O)[C@@H](N)C(C)C)[C@@H](C)O)[C@@H](C)O)C(=O)NC(CCCc2ccccc2)C(N)=O)cc1 (stereo partly drawn) [Seq. ID. No. 56, VH-(αMe-Pro)-EGT-(αMe-2,6-diFPhe)-T-(αMe-Ser)-D-(αMe-Bip(OMe))-(APPA)] (H-VH[ξαMeP]EGT[ξαMePhe(2,6-F2)]T[ξαMeS]D[ξαMeBip(2'-Et,4'-OMe)][ξhhPhe]-NH2)				blood glucose level (in vivo glucose reduction) (male C57BL/6J mice; 5 nM/kg, i.p, 0 min): 179 ± 5.0; blood glucose level (in vivo glucose reduction) (male C57BL/6J mice; 5 nM/kg, i.p, 30 min): 120 ± 3.6; blood glucose level (in vivo glucose reduction) (male C57BL/6J mice; 5 nM/kg, i.p, 60 min): 129 ± 2.0; blood glucose level (in vivo glucose reduction) (male C57BL/6J mice; 5 nM/kg, i.p, 120 min): 148 ± 1.7
71	8	70	9	(8) h	14	(6) h	40	78	1	CCc1cc(OC)ccc1-c1ccc(CC(C)(NC(=O)[C@H](CC(=O)O)NC(=O)[C@H](CO)NC(=O)[C@@H](NC(=O)C(C)(Cc2c(F)cccc2F)NC(=O)[C@@H](NC(=O)CNC(=O)[C@H](CCC(N)=O)NC(=O)C2(C)CCCN2C(=O)[C@H](Cc2c[nH]cn2)NC(=O)[C@@H](N)C(C)C)[C@@H](C)O)[C@@H](C)O)C(=O)NC(CCCc2ccccc2)C(N)=O)cc1 (some centres unmarked) [compound 28] (H-VH[ξαMeP]QGT[ξαMePhe(2,6-F2)]TSD[ξαMeBip(2'-Et,4'-OMe)][ξhhPhe]-NH2)	11.8 ± 0.50	14.9 ± 0.11	27.9 ± 0.31	
70	8	86	9	(8) h	15	(6) h	41	77	1	CCc1cc(OC)ccc1-c1ccc(CC(C)(NC(=O)[C@H](CC(=O)O)NC(=O)[C@H](CO)NC(=O)[C@@H](NC(=O)C(C)(Cc2c(F)cccc2F)NC(=O)[C@@H](NC(=O)CNC(=O)[C@H](CCC(=O)O)NC(=O)C(C)(C)NC(=O)[C@H](Cc2c[nH]cn2)NC(=O)[C@@H](N)C(C)C)[C@@H](C)O)[C@@H](C)O)C(=O)NC(CCCc2ccccc2)C(N)=O)cc1 (some centres unmarked) [compound 31] (H-VH[Aib]EGT[ξαMePhe(2,6-F2)]TSD[ξαMeBip(2'-Et,4'-OMe)][ξhhPhe]-NH2)	12.7 ± 0.21	15.8 ± 0.33	29.3 ± 0.19	
